Source: article PMC11819763, “Activity of Potassium Channel BmK-NSPK Inhibitor Regulated by Basic Amino Acid Residues: Novel Insight into the Diverse Peptide Pharmacology” (Molecules, 2025)
Positions of bridges follow the written chain, without caps; N, C: chain ends. Residues, ends and D or L forms follow the SMILES beside them.

Legend:
hKv1.3 channel = biological target: T1, hKv1.3 channel (Homo sapiens, UniProt P22001); assay: Whole-cell patch clamp, hKv1.3 channel currents in HEK293T cells; format: cell-based; conditions: from IC50 values on hKv1.3 channel
T1 construct: expressed in transfected cells; host or cells: HEK293T cells, co-transfected with pEGFP-N1
Excerpt: In order to verify the differential pharmacological activities between BmK-NSPK, MeuKTX, KTX-2 and KTX-3, their recombinant peptides were produced according to our previous procedure. […] Then, MALDI-TOF-MS was further used to analyze BmK-NSPK. The determined molecular mass was […], which well corresponds to its calculated value of 3659.8 Da. The circular dichroism (CD) spectra also indicated the overall similarity to the secondary structures between BmK-NSPK, MeuKTX, KTX-2 and KTX-3 peptides. […] Subsequently, the patch clamp technique was used to characterize the pharmacological activities of BmK-NSPK, MeuKTX, KTX-2 and KTX-3 peptides according to our previously described procedure. […]
In a 5% CO2 incubator at 37 °C, HEK293T cells were cultured in DMEM medium (Gibco, Grand Island, NY, USA) supplemented with 10% fetal bovine serum and 1% penicillin/streptomycin. […] After one day of transfection, the potassium currents were recorded, and the positive cells were selected based on the presence of GFP fluorescence.
(§1) Whole-cell current measurement and data acquisition were performed using an EPC-10 patch-clamp amplifier controlled by Pulse (HEKA Elektronik, Lambrecht, Germany). The potassium currents were recorded according to the recording protocol for the Kv1 channel, as described in previously published references. […]

hKv1.1 channel = assay: Whole-cell patch clamp, hKv1.1 channel currents; format: cell-based, human; conditions: 1 μM peptide, mean ± SE, n ≥ 3, SEM
Excerpt: (§2) The pRc/CMV-hKv1.3 was kindly provided by Professor Stephan Grissmer (University of Ulm, Ulm, Germany) and Professor Olaf Pongs (Zentrum für Molekulare Neurobiologie der Universität Hamburg, Hamburg, Germany). The cDNAs encoding hKv1.1 and hKv1.2 (from Professor Stephan Grissmer, University of Ulm, Ulm, Germany) were subcloned into the vector pIRES2-EGFP (TaKaRa Clontech, Mountain View, CA, USA). The cDNAs encoding hKv1.6 were subcloned into the vector pcDNA 3.1(+) (TaKaRa Clontech, Mountain View, CA, USA). A QuikChange Site-Directed Mutagenesis Kit (Stratagene, La Jolla, CA, USA) was used to produce the mutants based on the wild-type hKv1.3 channel plasmids. All plasmids and their mutants were verified by DNA sequencing before the expression. The three channel chimeras were, respectively, named by hKv1.3-M1 (425DPTSGFS432 → 425ERESQFP432), hKv1.3-M2 (452HPV456 → 452VPT456) and hKv1.3-M3 (425DPTSGFS432 → 425ERESQFP432, 452HPV456 → 452VPT456).
(§3) In a 5% CO2 incubator at 37 °C, HEK293T cells were cultured in DMEM medium (Gibco, Grand Island, NY, USA) supplemented with 10% fetal bovine serum and 1% penicillin/streptomycin. Potassium channel plasmids and pEGFP-N1 were co-transfected into the HEK293 cells using the ExFect Transfection Reagent (Vazyme, Nanjin, China). After one day of transfection, the potassium currents were recorded, and the positive cells were selected based on the presence of GFP fluorescence.
as §1, with “references. Peptides were dissolved in an external solution containing 0.01% BSA for electrophysiological experiments.” for “references.”

hKv1.2 channel = assay: Whole-cell patch clamp, hKv1.2 channel currents; format: cell-based, human; conditions: 1 μM peptide, mean ± SE, n ≥ 3, SEM
Excerpt: as §2, §3
as §1, with “references. Peptides were dissolved in an external solution containing 0.01% BSA for electrophysiological experiments.” for “references.”

hKv1.6 channel = assay: Whole-cell patch clamp, hKv1.6 channel currents; format: cell-based, human; conditions: 1 μM peptide, mean ± SE, n ≥ 3, SEM
Excerpt: as §2, §3
as §1, with “references. Peptides were dissolved in an external solution containing 0.01% BSA for electrophysiological experiments.” for “references.”

[1] = system: hKv1.3-M1 channel (turret domain of hKv1.3 substituted by hKv1.2 region); assay: Whole-cell patch clamp, chimeric hKv1.3-M1 channel currents; format: cell-based, human; conditions: mean ± SE, n ≥ 3, SEM
Description: In order to further investigate the effect of basic residue number on BmK-NSPK pharmacology, the activities of BmK-NSPK analogs were also tested on the Kv1.3 channel chimeras in this work. […] Based on the weak inhibition potencies of BmK-NSPK-7K and BmK-NSPK-8K towards hKv1.2 channel (Figure 5C,D), the work first constructed the chimeric hKv1.3-M1, in which the turret domain of hKv1.3 channel was substituted by the equivalent region of hKv1.2 channel (Figure 6A). Pharmacological experiments with 100 nM and 1 μM MeuKTX were able to inhibit 45.7 ± 7.9% and 82.8 ± 6.1% of hKv1.3-M1 channel currents, respectively (Figure 6B).
as §2, §3
(§4) Whole-cell current measurement and data acquisition were performed using an EPC-10 patch-clamp amplifier controlled by Pulse (HEKA Elektronik, Lambrecht, Germany). The potassium currents were recorded according to the recording protocol for the Kv1 channel, as described in previously published references. Peptides were dissolved in an external solution containing 0.01% BSA for electrophysiological experiments. The patch pipette solution contained 140 mM KF (Sigma, St. Louis, MC, USA), 2 mM MgCl2 (Sinopharm Chemical Reagent Co., Ltd., Shanghai, China), 1 mM EGTA (Sigma) and 10 mM HEPES (neoFroxx, Einhausen, Hessen, Germany) (pH adjusted to 7.4 with KOH (Sinopharm Chemical Reagent Co., Ltd., Shanghai, China)), and the bath solution contained 4.5 mM KCl, 160 Mm NaCl (Sinopharm Chemical Reagent Co., Ltd., Shanghai, China), 5 mM HEPES, 2 mM CaCl2 (Sinopharm Chemical Reagent Co., Ltd., Shanghai, China) and 1 mM MgCl2 (pH adjusted to 7.4 with NaOH (Sinopharm Chemical Reagent Co., Ltd., Shanghai, China)).
(§5) Graphing and data analysis were conducted using GraphPad Prism software (Version 8.0, San Diego, CA, USA), ClampFit software (version 10.2, Molecular Devices, Sunnyvale, CA, USA), and SigmaPlot software (version 12.0, IBM SPSS, Chicago, IL, USA). The dose–response relationship between the channel current and peptide inhibition was modeled by the modified Hill equation: Ipeptide/Icontrol = 1/{1 + [peptide]/IC50}, where Ipeptide represents the potassium current under peptide inhibition, Icontrol represents the peak current, IC50 is the half-maximal inhibition concentration and [peptide] represents the peptide concentration. The IC50 was obtained by fitting the Hill equation. Results are presented as mean ± SE, with each sample tested on at least three cells (n ≥ 3).

[2] = system: hKv1.3-M2 channel (filter region of hKv1.3 substituted by hKv1.2 region); assay: Whole-cell patch clamp, chimeric hKv1.3-M2 channel currents; format: cell-based, human; conditions: mean ± SE, n ≥ 3, SEM
Description: Apart from the chimeric hKv1.3-M1, this work further constructed the chimeric hKv1.3-M2 channel, in which the filter region of hKv1.3 channel was substituted by the equivalent region of hKv1.2 channel (Figure 6A). Pharmacological experiments 100 nM and 1 μM MeuKTX were able to inhibit 78.3 ± 4.9% and 95.9 ± 1.3% of hKv1.3-M2 channel currents, respectively, which indicated the minor effect of channel filter region on MeuKTX binding (Figure 6B). However, more significant effects were also observed for BmK-NSPK analogs with different numbers of basic residues.
as §2, §3, §4, §5

[3] = system: hKv1.3-M3 channel (turret, pore helix and filter region of hKv1.3 replaced by hKv1.2 regions); assay: Whole-cell patch clamp, chimeric hKv1.3-M3 channel currents; format: cell-based, human; conditions: mean ± SE, n ≥ 3, SEM
Excerpt: as §2, §3, §4, §5

T1 sequence (P22001 whole entry): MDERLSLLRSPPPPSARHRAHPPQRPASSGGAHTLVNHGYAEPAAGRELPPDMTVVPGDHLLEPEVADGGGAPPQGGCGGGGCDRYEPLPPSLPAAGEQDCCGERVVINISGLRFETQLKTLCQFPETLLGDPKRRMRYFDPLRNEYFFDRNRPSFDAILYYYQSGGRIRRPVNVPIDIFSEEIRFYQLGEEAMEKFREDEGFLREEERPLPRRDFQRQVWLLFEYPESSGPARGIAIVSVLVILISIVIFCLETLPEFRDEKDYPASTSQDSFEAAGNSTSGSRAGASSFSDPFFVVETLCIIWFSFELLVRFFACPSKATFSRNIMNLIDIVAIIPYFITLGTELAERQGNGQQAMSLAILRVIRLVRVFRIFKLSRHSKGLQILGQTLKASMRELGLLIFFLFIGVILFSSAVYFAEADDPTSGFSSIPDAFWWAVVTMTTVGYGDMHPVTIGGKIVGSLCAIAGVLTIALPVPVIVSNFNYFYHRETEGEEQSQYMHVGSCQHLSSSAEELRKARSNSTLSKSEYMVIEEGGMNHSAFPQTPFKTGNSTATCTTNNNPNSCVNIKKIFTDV

Compound: CSCC[C@@H]1NC(=O)CNC(=O)[C@H](C)NC(=O)[C@H](CC(=O)O)NC(=O)[C@H](CCCCN)NC(=O)[C@@H]2CSSC[C@@H](C(=O)N[C@H](C(=O)N3CCC[C@H]3C(=O)N[C@@H](CCCCN)C(=O)NCC(=O)O)[C@@H](C)O)NC(=O)[C@H](CC(=O)O)NC(=O)[C@@H]3CSSC[C@H](NC(=O)[C@H](CCC(N)=O)NC(=O)CNC(=O)[C@H](CO)NC(=O)[C@H](Cc4c[nH]cn4)NC(=O)[C@H](CCCCN)NC(=O)[C@@H](NC(=O)[C@H](CCCCN)NC(=O)[C@@H](NC(=O)[C@H](CC(N)=O)NC(=O)[C@H](CCCCN)NC(=O)CNC(=O)[C@@H](N)C(C)C)C(C)C)CSSC[C@H](NC(=O)[C@H](CCCCN)NC(=O)CNC(=O)[C@H](Cc4ccccc4)NC(=O)[C@H](CCCNC(=N)N)NC1=O)C(=O)N[C@@H](CCSC)C(=O)N[C@@H](CC(N)=O)C(=O)NCC(=O)N[C@@H](CCCCN)C(=O)N3)C(=O)N[C@@H](CC(C)C)C(=O)N[C@@H](CCCCN)C(=O)N1CCC[C@H]1C(=O)N2 [BmK-NSPK-8K] (H-VGKNVKCKHSGQCLKPCKDAGMRFGKCMNGKCDCTPKG-OH; disulfide 7-27, 13-32, 17-34 (inferred); N-terminus and C-terminus assumed)
- fold decreased activity on hKv1.3 compared with BmK-NSPK-7K (hKv1.3 channel): ~ 10 fold
- inhibition of hKv1.1 channel currents (hKv1.1 channel): 84.3 ± 1.8%
- inhibition of hKv1.2 channel currents (hKv1.2 channel): 12.3 ± 1.8%
- inhibition of hKv1.6 channel currents (hKv1.6 channel): 34.1 ± 4.8%
- inhibition of hKv1.3-M1 channel currents ([1]; 100 nM peptide): 4.5 ± 1.2%
- inhibition of hKv1.3-M1 channel currents ([1]; 1 μM peptide): 27.7 ± 4.0%
- inhibition of hKv1.3-M2 channel currents ([2]; 100 nM peptide): 8.8 ± 2.6%
- inhibition of hKv1.3-M2 channel currents ([2]; 1 μM peptide): 51.3 ± 1.5%
- inhibition of hKv1.3-M3 channel currents ([3]; 100 nM peptide): 2.7 ± 0.92%
- inhibition of hKv1.3-M3 channel currents ([3]; 1 μM peptide): 5.1± 1.4%
